Source: patent US9682049B2, “Non-racemic mixtures of various ratios of D- and L-methadone and methods of treating pain using the same” (priority 2015, dated 2017)
Structures can show the parent of a compound that is named as a salt. Where two headings read alike, the source gives them in different places.

What was measured:
[1] = tested on: painful diabetic neuropathy; assay: Changes in VAS scores (SF-MPQ), double-blind randomized crossover study vs placebo; format: in vivo, human
Protocol: (§1) Potential patients were recruited by advertising and screened via interview, review of health history and medications, physical examination, lab work, and ECG.
(§2) The average daily pain score and the worst daily pain scores were measured. Patients recorded their pain score four times daily on a scale of 0 to 10. Additionally, pain scores were measured using a Visual Analog Scale (VAS) during weekly visits to the study center.
VAS is a measurement instrument that measures a characteristic or attitude that is believed to range across a continuum of values. For example, the amount of pain that a patient feels may range across a continuum from no pain to an extreme amount of pain. […] In order to capture this underlying continuum, VAS was devised, and in the present study, VAS was used as described here. (See e.g., D. Gould et al., J. Clin. Nursing, 10: 697-706 (2001)).
VAS was conducted by using a horizontal line, 100 mm in length, anchored by word descriptors at each end, as illustrated below. Patients marked on a line (as shown below) the point that best represented their perception of pain.
A VAS score was determined by measuring in millimeters from the left hand end of the line to the point that the patient marked.

[2] = tested on: painful diabetic neuropathy; assay: Changes in average daily pain scores, double-blind randomized crossover study vs placebo; format: in vivo, human
Protocol: as §1, §2

[3] = tested on: patients with painful diabetic neuropathy; assay: Patient withdrawal because of side effects in the 3:1 D:L-methadone study; details: terminated the study because of side effects (mostly nausea and vomiting)
Protocol: Patients were subjected to forceful weekly titration of doses from 15 mg the first week, to 30 mg the second week, and to 40 mg the third and fourth weeks.

[4] = Solubility of 75/25 D/L methadone HCl drug substance; format: physicochemical
Source text: General Properties of 75/25 D/L Methadone-HCl Included the Following Physical Characteristics: […]

neuropathic pain [5] = details: cited from earlier work; for placebo-adjusted relief of average daily pain intensity: Morley
[6] = tested on: patients with neuropathic pain; details: Morley study; cited from earlier work
neuropathic pain model = details: intrathecal, rats; not reversed by naloxone; cited from earlier work
neuropathic pain [7] = details: Lemberg et al. 2006; cited from earlier work
neuropathic pain [8] = details: small group of patients, high dose; cited from earlier work

SMILES: CCC(=O)C(CC(C)N(C)C)(c1ccccc1)c1ccccc1 (racemic) [75:25 D:L-methadone, Mixture of 75% (6S)-6-(dimethylamino)-4,4-dipheylhepan-3-one hydrochloride and 25% (6R)-6-(dimethylamino)-4,4-dipheylhepan-3-one hydrochloride]
- Change in VAS score (SF-MPQ), median ([1]; 15 mg): −7.0
- Change in VAS score, difference in means vs placebo (95% CI) ([1]; 15 mg): −10.1 (−21.0; 0.9)
- Change in VAS score (SF-MPQ), mean ([1]; 15 mg, VAS 100 mm line, primary efficacy population): −12.8
- Change in VAS score (SF-MPQ), mean ([1]; 30 mg): −14.9
- Change in VAS score (SF-MPQ), median ([1]; 30 mg): −8.0
- Change in VAS score, difference in means vs placebo (95% CI) ([1]; 30 mg): −6.3 (−17.4; 4.9)
- Change in VAS score (SF-MPQ), mean ([1]; 40 mg (1st Week)): −19.5
- Change in VAS score (SF-MPQ), median ([1]; 40 mg (1st Week)): −13.0
- Change in VAS score, difference in means vs placebo (95% CI) ([1]; 40 mg (1st Week)): −10.5 (−19.6; −1.4)
- Change in VAS score (SF-MPQ), mean ([1]; 40 mg (2nd Week)): −20.7
- Change in VAS score (SF-MPQ), median ([1]; 40 mg (2nd Week)): −10.0
- Change in VAS score, difference in means vs placebo (95% CI) ([1]; 40 mg (2nd Week)): −8.1 (−18.3; 2.2)
- Change in VAS score (SF-MPQ), mean ([1]; 40 mg (Both Weeks)): −20.1
- Change in VAS score (SF-MPQ), median ([1]; 40 mg (Both Weeks)): −12.0
- Change in VAS score, difference in means vs placebo (95% CI) ([1]; 40 mg (Both Weeks)): −9.3 (−15.8; − 2.8)
- Change in VAS score (SF-MPQ), mean ([1]; 15-30 mg (Combined), pooled): −13.9
- Change in VAS score (SF-MPQ), median ([1]; 15-30 mg (Combined), pooled): −8.0
- Change in VAS score, difference in means vs placebo (95% CI) ([1]; 15-30 mg (Combined), pooled): −8.1 (−15.6; −0.6)
- placebo-adjusted relief of average daily pain intensity ([1]; lowest tested dose (15 mg) of the 3:1 mixture): −10.1
- placebo-adjusted relief of average daily pain intensity compared with 10 mg of racemic methadone ([1]; vs Morley 10 mg racemic methadone): 3 times better
- placebo-adjusted relief of average daily pain intensity compared with 20 mg of racemic methadone ([1]; vs Morley 20 mg racemic methadone): 54 % better
- Change in average daily pain score, Difference in Means vs placebo (95% CI) ([2]; 15 mg): −0.84 (−1.64; −0.04)
- Change in average daily pain score, Mean (SD) ([2]; 15 mg, scale of 0 to 10, two clinical sites combined): −0.88 (1.46)
- Change in average daily pain score, Difference in Means vs placebo (95% CI) ([2]; 30 mg): −1.14 (−2.30; 0.02)
- Change in average daily pain score, Mean (SD) ([2]; 30 mg): −1.41 (1.87)
- Change in average daily pain score, Difference in Means vs placebo (95% CI) ([2]; 40 mg (1st Week)): −1.08 (−2.20; 0.03)
- Change in average daily pain score, Mean (SD) ([2]; 40 mg (1st Week)): −1.57 (1.98)
- Change in average daily pain score, Difference in Means vs placebo (95% CI) ([2]; 40 mg (2nd Week)): −1.17 (−2.28; −0.06)
- Change in average daily pain score, Mean (SD) ([2]; 40 mg (2nd Week)): −1.73 (2.01)
- Change in average daily pain score, Difference in Means vs placebo (95% CI) ([2]; 40 mg (Both Weeks)): −1.13 (−1.88; −0.38)
- Change in average daily pain score, Mean (SD) ([2]; 40 mg (Both Weeks)): −1.65 (1.97)
- Change in average daily pain score, Difference in Means vs placebo (95% CI) ([2]; 15-30 mg Combined): −0.99 (1.67; −0.31)
- Change in average daily pain score, Mean (SD) ([2]; 15-30 mg Combined): −1.14 (1.67)
- patient withdrawal rate [3]: 17%
- Solubility ([4]; alcohols): readily soluble
- Solubility ([4]; ether): practically insoluble
- Solubility ([4]; methylene chloride): readily soluble
- Solubility ([4]; water): readily soluble

SMILES: CCC(=O)C(CC(C)N(C)C)(c1ccccc1)c1ccccc1 (racemic) [racemic methadone, methadone]
- placebo-adjusted relief of average daily pain intensity (neuropathic pain [5]; 10 mg of racemic methadone): −3.20
- placebo-adjusted relief of average daily pain intensity (neuropathic pain [5]; 20 mg of racemic methadone): −6.56
- analgesic effect in neuropathic pain (neuropathic pain [5]; Morley et al. 2003): analgesic effect
- patient withdrawal rate [6]: 37%

SMILES: CCC(=O)C(C[C@H](C)N(C)C)(c1ccccc1)c1ccccc1 [D-methadone, (S)-(+)-methadone]
- antinociception (neuropathic pain model): produced antinociception
- potency in neuropathic pain (neuropathic pain [7]): inactive
- analgesic response (neuropathic pain [8]): no analgesic response

SMILES: CCC(=O)C(C[C@@H](C)N(C)C)(c1ccccc1)c1ccccc1 [L-methadone, (R)-(−)-methadone]
- potency in neuropathic pain (neuropathic pain [7]): greater potency than other opioids
